# Test results from PubChem BioAssay (NCI).
#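 Following 48 hours of exposure in 96-well plates, responses at five concentrations were used to interpolate endpoints linearly. GI50 = concentration required for 50% inhibition of growth. TGI: concentration producing complete growth inhibition.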
# What was measured:
# Experiment in all cases: DTP human tumour cell line panel, 48 h
# NCI-H226 lung = tested on: NCI-H226 lung
# A498 renal = tested on: A498 renal
# MALME-3M melanoma = tested on: MALME-3M melanoma
# MDA-MB-435 = tested on: MDA-MB-435
# SK-OV-3 ovarian = tested on: SK-OV-3 ovarian
# HOP-92 NSCLC = tested on: HOP-92 NSCLC
# NCI-H460 lung = tested on: NCI-H460 lung
# CCRF-CEM leukemia = tested on: CCRF-CEM leukemia
# SF-268 CNS = tested on: SF-268 CNS
# SK-MEL-28 melanoma = tested on: SK-MEL-28 melanoma
# COLO 205 colon = tested on: COLO 205 colon
# KM12 colon = tested on: KM12 colon
# OVCAR-3 ovarian = tested on: OVCAR-3 ovarian
# ACHN renal = tested on: ACHN renal
# OVCAR-8 ovarian = tested on: OVCAR-8 ovarian
# BT-549 breast = tested on: BT-549 breast
# NCI/ADR-RES ovarian = tested on: NCI/ADR-RES ovarian
# EKVX NSCLC = tested on: EKVX NSCLC
# OVCAR-5 ovarian = tested on: OVCAR-5 ovarian
# HCT-116 colon = tested on: HCT-116 colon
# SK-MEL-5 melanoma = tested on: SK-MEL-5 melanoma
# SNB-75 CNS = tested on: SNB-75 CNS
# K-562 leukemia = tested on: K-562 leukemia
# HOP-62 NSCLC = tested on: HOP-62 NSCLC
# HL-60(TB) leukemia = tested on: HL-60(TB) leukemia
# IGROV1 ovarian = tested on: IGROV1 ovarian
# PC-3 prostate = tested on: PC-3 prostate
# HCC-2998 colon = tested on: HCC-2998 colon
# 786-0 renal = tested on: 786-0 renal
# NCI-H522 lung = tested on: NCI-H522 lung
# OVCAR-4 ovarian = tested on: OVCAR-4 ovarian
# SF-295 CNS = tested on: SF-295 CNS
# HS 578T breast = tested on: HS 578T breast
# A549 NSCLC = tested on: A549 NSCLC
# MOLT-4 leukemia = tested on: MOLT-4 leukemia
# MCF7 breast = tested on: MCF7 breast
# LOX IMVI melanoma = tested on: LOX IMVI melanoma
# M14 melanoma = tested on: M14 melanoma
# CAKI-1 renal = tested on: CAKI-1 renal
# SN12C renal = tested on: SN12C renal
# U251 CNS = tested on: U251 CNS
# SK-MEL-2 melanoma = tested on: SK-MEL-2 melanoma
# TK-10 renal = tested on: TK-10 renal
# MDA-MB-231 breast = tested on: MDA-MB-231 breast
# HCT-15 colon = tested on: HCT-15 colon
# NCI-H23 lung = tested on: NCI-H23 lung
# SNB-19 CNS = tested on: SNB-19 CNS
# RPMI-8226 leukemia = tested on: RPMI-8226 leukemia
# SW-620 colon = tested on: SW-620 colon
# DU-145 prostate = tested on: DU-145 prostate
# SR leukemia = tested on: SR leukemia
# UACC-62 melanoma = tested on: UACC-62 melanoma
# HT29 colon = tested on: HT29 colon
# SF-539 CNS = tested on: SF-539 CNS
# UACC-257 melanoma = tested on: UACC-257 melanoma
# RXF 393 renal = tested on: RXF 393 renal
# UO-31 renal = tested on: UO-31 renal
smiles,measurement,setting,value
C[C@H](Nc1ccc2c(c1)OCCn1cc(N3C(=O)OC[C@H]3C(F)F)nc1-2)C(N)=O,GI50,NCI-H226 lung,> 62 µM
same,TGI,NCI-H226 lung,> 100 µM
same,GI50,A498 renal,2.09 µM
same,TGI,A498 renal,10.2 µM
same,GI50,MALME-3M melanoma,> 20.7 µM
same,TGI,MALME-3M melanoma,> 100 µM
same,GI50,MDA-MB-435,25.6 µM
same,TGI,MDA-MB-435,> 100 µM
same,GI50,SK-OV-3 ovarian,0.0307 µM
same,TGI,SK-OV-3 ovarian,0.809 µM
same,GI50,HOP-92 NSCLC,0.183 µM
same,TGI,HOP-92 NSCLC,16.4 µM
same,GI50,NCI-H460 lung,1.08 µM
same,TGI,NCI-H460 lung,> 100 µM
same,GI50,CCRF-CEM leukemia,7.93 µM
same,TGI,CCRF-CEM leukemia,> 100 µM
same,GI50,SF-268 CNS,29 µM
same,TGI,SF-268 CNS,> 100 µM
same,GI50,SK-MEL-28 melanoma,7.3 µM
same,TGI,SK-MEL-28 melanoma,> 100 µM
same,GI50,COLO 205 colon,2.3 µM
same,TGI,COLO 205 colon,> 100 µM
same,GI50,KM12 colon,46.9 µM
same,TGI,KM12 colon,> 100 µM
same,GI50,OVCAR-3 ovarian,6.26 µM
same,TGI,OVCAR-3 ovarian,> 100 µM
same,GI50,ACHN renal,5 µM
same,TGI,ACHN renal,> 100 µM
same,GI50,OVCAR-8 ovarian,> 68.3 µM
same,TGI,OVCAR-8 ovarian,> 100 µM
same,GI50,BT-549 breast,5.4 µM
same,TGI,BT-549 breast,> 100 µM
same,GI50,NCI/ADR-RES ovarian,> 69.9 µM
same,TGI,NCI/ADR-RES ovarian,> 100 µM
same,GI50,EKVX NSCLC,4.91 µM
same,TGI,EKVX NSCLC,> 100 µM
same,GI50,OVCAR-5 ovarian,0.421 µM
same,TGI,OVCAR-5 ovarian,> 82.6 µM
same,GI50,HCT-116 colon,17.1 µM
same,TGI,HCT-116 colon,> 100 µM
same,GI50,SK-MEL-5 melanoma,20.8 µM
same,TGI,SK-MEL-5 melanoma,> 100 µM
same,GI50,SNB-75 CNS,0.0619 µM
same,TGI,SNB-75 CNS,5.12 µM
same,GI50,K-562 leukemia,> 100 µM
same,TGI,K-562 leukemia,> 100 µM
same,GI50,HOP-62 NSCLC,17.5 µM
same,TGI,HOP-62 NSCLC,> 100 µM
same,GI50,HL-60(TB) leukemia,0.413 µM
same,TGI,HL-60(TB) leukemia,> 100 µM
same,GI50,IGROV1 ovarian,0.0199 µM
same,TGI,IGROV1 ovarian,0.215 µM
same,GI50,PC-3 prostate,3.81 µM
same,TGI,PC-3 prostate,> 100 µM
same,GI50,HCC-2998 colon,1.92 µM
same,TGI,HCC-2998 colon,> 100 µM
same,GI50,786-0 renal,9.95 µM
same,TGI,786-0 renal,> 100 µM
same,GI50,NCI-H522 lung,> 100 µM
same,TGI,NCI-H522 lung,> 100 µM
same,GI50,OVCAR-4 ovarian,79.4 µM
same,TGI,OVCAR-4 ovarian,> 100 µM
same,GI50,SF-295 CNS,7.8 µM
same,TGI,SF-295 CNS,> 100 µM
same,GI50,HS 578T breast,1.77 µM
same,TGI,HS 578T breast,68.1 µM
same,GI50,A549 NSCLC,4.82 µM
same,TGI,A549 NSCLC,> 100 µM
same,GI50,MOLT-4 leukemia,2.89 µM
same,TGI,MOLT-4 leukemia,> 100 µM
same,GI50,MCF7 breast,0.0354 µM
same,TGI,MCF7 breast,> 100 µM
same,GI50,LOX IMVI melanoma,4.8 µM
same,TGI,LOX IMVI melanoma,40.4 µM
same,GI50,M14 melanoma,68.5 µM
same,TGI,M14 melanoma,> 100 µM
same,GI50,CAKI-1 renal,4.88 µM
same,TGI,CAKI-1 renal,> 100 µM
same,GI50,SN12C renal,13 µM
same,TGI,SN12C renal,> 100 µM
same,GI50,U251 CNS,> 77.6 µM
same,TGI,U251 CNS,> 100 µM
same,GI50,SK-MEL-2 melanoma,> 100 µM
same,TGI,SK-MEL-2 melanoma,> 100 µM
same,GI50,TK-10 renal,0.517 µM
same,TGI,TK-10 renal,> 91.2 µM
same,GI50,MDA-MB-231 breast,16.4 µM
same,TGI,MDA-MB-231 breast,65.3 µM
same,GI50,HCT-15 colon,0.52 µM
same,TGI,HCT-15 colon,> 100 µM
same,GI50,NCI-H23 lung,38.5 µM
same,TGI,NCI-H23 lung,> 100 µM
same,GI50,SNB-19 CNS,25.3 µM
same,TGI,SNB-19 CNS,> 100 µM
same,GI50,RPMI-8226 leukemia,31.3 µM
same,TGI,RPMI-8226 leukemia,> 100 µM
same,GI50,SW-620 colon,20.5 µM
same,TGI,SW-620 colon,> 100 µM
same,GI50,DU-145 prostate,20.3 µM
same,TGI,DU-145 prostate,> 100 µM
same,GI50,SR leukemia,38.6 µM
same,TGI,SR leukemia,> 100 µM
same,GI50,UACC-62 melanoma,3.05 µM
same,TGI,UACC-62 melanoma,> 100 µM
same,GI50,HT29 colon,0.153 µM
same,TGI,HT29 colon,> 100 µM
same,GI50,SF-539 CNS,3.12 µM
same,TGI,SF-539 CNS,43.8 µM
same,GI50,UACC-257 melanoma,11.5 µM
same,TGI,UACC-257 melanoma,> 100 µM
same,GI50,RXF 393 renal,5.56 µM
same,TGI,RXF 393 renal,45.8 µM
same,GI50,UO-31 renal,1.57 µM
same,TGI,UO-31 renal,> 100 µM
